Source: ChEMBL document CHEMBL5620432 (Eur J Med Chem, 2023)
Active and inactive are the calls of the source. The calls are words filed in the database; no cut-off is given here.

What was measured:
Mu-type opioid receptor [1] = target: T1, Mu-type opioid receptor (Homo sapiens, UniProt P35372); assay: Agonist activity at human MOR expressed in CHO-K1 cells co-expressed with Galphai by cAMP assay; format: functional, cell-based
Mu-type opioid receptor [2] = target: T1, Mu-type opioid receptor; assay: Agonist activity at human MOR expressed in CHO-K1 cells co-expressed with Galphai by cAMP assay relative to control; format: functional, cell-based
Nociceptin receptor [3] = target: T2, Nociceptin receptor (Homo sapiens, UniProt P41146); assay: Agonist activity at human NOP receptor expressed in CHO-K1 cells co-expressed with Galphai by cAMP assay relative to control; format: functional, cell-based
T2 sequence (P41146 whole entry): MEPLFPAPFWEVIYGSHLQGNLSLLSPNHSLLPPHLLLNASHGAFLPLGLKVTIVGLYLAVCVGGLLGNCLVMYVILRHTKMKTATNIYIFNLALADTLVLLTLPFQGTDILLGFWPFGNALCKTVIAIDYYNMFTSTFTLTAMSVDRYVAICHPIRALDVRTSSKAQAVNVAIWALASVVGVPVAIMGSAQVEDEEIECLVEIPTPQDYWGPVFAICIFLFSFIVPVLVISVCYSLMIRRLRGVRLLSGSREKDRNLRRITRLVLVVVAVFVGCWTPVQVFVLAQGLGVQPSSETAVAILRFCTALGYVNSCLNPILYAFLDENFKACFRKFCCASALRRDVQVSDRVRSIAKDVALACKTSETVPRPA

Mus musculus [4] = assay: Antinociceptive activity in wild type C57BL/6 mouse assessed as maximum possible effect at 12 mg/kg measured upto 60 mins by tail-flick test; format: functional; details: 1 h
Nociceptin receptor [5] = target: T2, Nociceptin receptor; assay: Agonist activity at human NOP receptor expressed in CHO-K1 cells co-expressed with Galphai by cAMP assay; format: functional, cell-based
Mus musculus [6] = assay: Antinociceptive activity in thermal stimulated sc dosed wild type C57BL/6 mouse measured upto 120 mins by tail flick test; format: functional; details: C57BL/6, 2 h
Nociceptin receptor [7] = target: T2, Nociceptin receptor; assay: Agonist activity at human NOP receptor expressed in CHO-K1 cells assessed as beta arrestin-2 recruitment; format: functional, cell-based
Nociceptin receptor [8] = target: T2, Nociceptin receptor; assay: Displacement of [3H]-Nociceptin from human NOP receptor expressed in CHO-K1 cell membrane assessed as inhibition constant; format: cell membranes
Mus musculus [9] = assay: Induction of motivational effect in C57BL/6 mouse assessed as increase in number of jumps at 284 microg/kg, sc administered daily twice for 5 days by CPP analysis; format: functional, organism-based; details: dose 284.0 µg/kg, time 5.0 day
Mus musculus [10] = assay: Antinociceptive activity in thermal stimulated sc dosed hMOR/mMOR knockout C57BL/6 mouse measured upto 120 mins by tail flick test; format: functional; details: C57BL/6, 2 h
Mus musculus [11] = assay: Antinociceptive activity in thermal stimulated wild type C57BL/6 mouse at 284 to 568 microg/kg, sc measured at 30 to 60 mins by tail flick test; format: functional, organism-based; details: dose 284-568 µg/kg, time 30-60 min
[12] = Drug concentration in mouse brain at 2 mg/kg,sc measured after 5 mins by ICP-MS analysis; format: ADME, organism-based; details: read-out: Ct
Mus musculus [13] = assay: Antinociceptive activity in thermal stimulated MOR-knockout C57BL/6 mouse assessed as delay in flick tail at 252.8 microg/kg, sc measured upto 120 mins by tail flick test; format: functional, organism-based; details: dose 252.8 µg/kg
Mu-type opioid receptor [14] = target: T1, Mu-type opioid receptor; assay: Agonist activity at human MOR expressed in CHO-K1 cells assessed as decrease in intracellular cAMP level at 1 uM in presence of naltrexone; format: functional, cell-based; details: filed as agonist
[15] = Drug concentration in mouse intestine at 2 mg/kg,sc measured after 5 mins by ICP-MS analysis; format: ADME, organism-based; details: read-out: Ct
[16] = Drug concentration in mouse plasma at 2 mg/kg,sc measured after 5 mins by ICP-MS analysis; format: ADME, organism-based
Mus musculus [17] = assay: Antinociceptive activity in thermal stimulated wild type C57BL/6 mouse assessed as drug tolerance at 568 microg/kg, sc administered twice daily for 5 days and measured on day 1, 3, and 5 after 30 mins post drug treatment by tail flick test; format: functional, organism-based; details: dose 568.0 µg/kg, time 5.0 day
Mu-type opioid receptor [18] = target: T1, Mu-type opioid receptor; assay: Displacement of [3H]-Diprenorphine from human MOR expressed in CHO-K1 cell membrane assessed as inhibition constant; format: cell membranes
Mus musculus [19] = assay: Antinociceptive activity in thermal stimulated hMOR/mMOR knockout C57BL/6 mouse at 402 microg/kg,sc measured after 30 to 60 mins by tail flick test; format: functional, organism-based; details: dose 402.0 µg/kg, time 30-60 min
[20] = Drug concentration in mouse intestine at 2 mg/kg,sc measured after 60 mins by ICP-MS analysis; format: ADME, organism-based; details: read-out: Ct
Mu-type opioid receptor [21] = target: T1, Mu-type opioid receptor; assay: Agonist activity at human MOR expressed in CHO-K1 cells assessed as beta arrestin-2 recruitment; format: functional, cell-based
Mus musculus [22] = assay: Antinociceptive activity in thermal stimulated hMOR/mMOR knockout C57BL/6 mouse assessed as drug tolerance at 402 microg/kg, sc administered twice daily for 5 days and measured on day 1, 3, and 5 after 30 mins post drug treatment by tail flick test; format: functional, organism-based; details: dose 402.0 µg/kg, time 5.0 day
Mus musculus [23] = assay: Induction of motivational effect in C57BL/6 mouse assessed as increase in reward behaviour at 284 microg/kg, sc administered for 4 days and measured on day 6 by CPP analysis; format: functional, organism-based; details: dose 284.0 µg/kg, time 6.0 day
[24] = Drug concentration in mouse brain at 2 mg/kg,sc measured after 60 mins by ICP-MS analysis; format: ADME, organism-based; details: read-out: Ct
Nociceptin receptor [25] = target: T2, Nociceptin receptor; assay: Agonist activity at human NOP receptor expressed in CHO-K1 cells assessed as decrease in intracellular cAMP level at 1 uM in presence of BAN ORL 24; format: functional, cell-based; details: filed as agonist
[26] = Drug concentration in mouse plasma at 2 mg/kg,sc measured after 60 mins by ICP-MS analysis; format: ADME, organism-based
Mus musculus [27] = assay: Induction of motivational effect in C57BL/6 mouse assessed as increase in number of jumps at 2.5 microg/kg, sc administered daily twice for 5 days by CPP analysis; format: functional, organism-based; details: dose 2.5 µg/kg, time 5.0 day

T1 sequence (P35372 whole entry): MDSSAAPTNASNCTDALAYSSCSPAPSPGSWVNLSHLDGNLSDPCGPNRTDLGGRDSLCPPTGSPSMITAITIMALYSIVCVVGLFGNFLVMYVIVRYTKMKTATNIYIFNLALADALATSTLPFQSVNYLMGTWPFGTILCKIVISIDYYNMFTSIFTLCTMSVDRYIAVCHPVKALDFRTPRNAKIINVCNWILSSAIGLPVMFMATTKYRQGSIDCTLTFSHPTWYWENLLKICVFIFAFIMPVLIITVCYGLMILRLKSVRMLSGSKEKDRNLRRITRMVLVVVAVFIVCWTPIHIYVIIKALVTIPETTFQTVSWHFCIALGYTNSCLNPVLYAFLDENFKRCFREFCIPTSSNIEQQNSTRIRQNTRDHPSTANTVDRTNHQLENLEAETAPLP

## CN(C)C(CNC(=O)Nc1cccc(Cl)c1)c1cccc(F)c1 (stereo unspecified)
Mu-type opioid receptor [1]
  EC50: 0.1 nM
Mu-type opioid receptor [2]; filed as agonist
  Emax: 72.5%
Nociceptin receptor [3]
  Emax: < 20%

## CN(C)C(CNC(=O)NCCc1cccc(F)c1)c1cccc(F)c1 (stereo unspecified)
Mu-type opioid receptor [1]
  EC50: 0.000374 nM
Mu-type opioid receptor [2]; filed as agonist
  Emax: 90.8%
Nociceptin receptor [3]; filed as agonist
  Emax: 92.6%
Mus musculus [4]
  MPE: 0%

## CN1CCc2ccccc2C1CNC(=O)c1ccc(Cl)c(Cl)c1 (stereo unspecified)
Mu-type opioid receptor [1]
  EC50: 0.0234 nM
Mu-type opioid receptor [2]; filed as agonist
  Emax: 93.6%
Nociceptin receptor [5]
  EC50: 0.17 nM
Nociceptin receptor [3]; filed as agonist
  Emax: 87%

## CN(C)C(CNC(=O)NCc1ccc(C(F)(F)F)cc1)c1cccc(F)c1 (stereo unspecified)
Mu-type opioid receptor [1]
  EC50: 0.19 nM
Mu-type opioid receptor [2]; filed as agonist
  Emax: 93.3%
Nociceptin receptor [5]
  EC50: 0.71 nM
Nociceptin receptor [3]; filed as agonist
  Emax: 92.3%
Mus musculus [4]
  MPE: 0%

## CN(C)C(CNC(=O)NCc1cccc(OC(F)(F)F)c1)c1cccc(F)c1 (stereo unspecified)
Mu-type opioid receptor [1]
  EC50: 0.0164 nM
Mu-type opioid receptor [2]; filed as agonist
  Emax: 77.9%
Nociceptin receptor [5]
  EC50: 0.02 nM
Nociceptin receptor [3]; filed as agonist
  Emax: 80.4%

## Cc1ccc(CNC(=O)NCC(c2cccc(F)c2)N(C)C)cc1 (stereo unspecified)
Mu-type opioid receptor [2]; filed as agonist
  Emax: 88%
Nociceptin receptor [3]
  Emax: < 20%

## CN(C)C(CNC(=O)Nc1ccc(Cl)c(Cl)c1)c1cccc(F)c1 (stereo unspecified)
Mu-type opioid receptor [2]; filed as agonist
  Emax: 68.5%
Nociceptin receptor [5]
  EC50: 37.2 nM
Nociceptin receptor [3]; filed as agonist
  Emax: 74.1%

## CN(C)C(CNC(=O)NCc1ccc(OC(F)(F)F)cc1)c1cccc(F)c1 (stereo unspecified)
Mu-type opioid receptor [1]
  EC50: 1.52 nM
Mu-type opioid receptor [2]; filed as agonist
  Emax: 76.9%
Nociceptin receptor [5]
  EC50: 2420 nM
Nociceptin receptor [3]; filed as agonist
  Emax: 61.9%

## CN(C)C(CNC(=O)NCCc1ccc(Cl)cc1)c1cccc(F)c1 (stereo unspecified)
Mu-type opioid receptor [2]; filed as agonist
  Emax: 72.4%
Nociceptin receptor [5]
  EC50: 0.61 nM
Nociceptin receptor [3]; filed as agonist
  Emax: 53.9%

## CN(C)C(CNC(=O)NCCc1ccccc1)c1cccc(F)c1 (stereo unspecified)
Mu-type opioid receptor [1]
  EC50: 21 nM
Mu-type opioid receptor [2]; filed as agonist
  Emax: 86.6%
Nociceptin receptor [5]
  EC50: 2.96 nM
Nociceptin receptor [3]; filed as agonist
  Emax: 72%

## Cc1ccc(CCNC(=O)NCC(c2cccc(F)c2)N(C)C)cc1 (stereo unspecified)
Mu-type opioid receptor [1]
  EC50: 15.1 nM
Mu-type opioid receptor [2]; filed as agonist
  Emax: 80.7%
Nociceptin receptor [5]
  EC50: 209 nM
Nociceptin receptor [3]; filed as agonist
  Emax: 76.9%

## CN(C)C(CNC(=O)NCc1ccc(F)cc1)c1cccc(F)c1 (stereo unspecified)
Mu-type opioid receptor [2]; filed as agonist
  Emax: 96.1%
Nociceptin receptor [3]; filed as agonist
  Emax: 93.2%
Mus musculus [4]
  MPE: 100%

## CN(C)C(CNC(=O)NCCc1ccc(F)cc1)c1cccc(F)c1 (stereo unspecified)
Mu-type opioid receptor [2]; filed as agonist
  Emax: 81.1%
Nociceptin receptor [5]
  EC50: 0.000126 nM
Nociceptin receptor [3]; filed as agonist
  Emax: 58.4%

## CN(C)C(CNC(=O)NCc1cccc(C(F)(F)F)c1)c1cccc(F)c1 (stereo unspecified)
Mu-type opioid receptor [1]
  EC50: 0.00066 nM
Mu-type opioid receptor [2]; filed as agonist
  Emax: 85.2%
Nociceptin receptor [3]
  Emax: < 20%

## CN(C)C(CNC(=O)NCc1cccc(F)c1)c1cccc(F)c1 (stereo unspecified)
Mu-type opioid receptor [2]; filed as agonist
  Emax: 91.2%
Nociceptin receptor [3]; filed as agonist
  Emax: 89.8%

## CN(C)C(CNC(=O)NCCc1cccc(C(F)(F)F)c1)c1cccc(F)c1 (stereo unspecified)
Mu-type opioid receptor [1]
  EC50: 0.0186 nM
Mu-type opioid receptor [2]; filed as agonist
  Emax: 74.1%
Nociceptin receptor [3]
  Emax: < 20%

## CN(C)C(CNC(=O)NCCc1cccc(Cl)c1)c1cccc(F)c1 (stereo unspecified)
Mu-type opioid receptor [2]; filed as agonist
  Emax: 89.9%
Nociceptin receptor [3]; filed as agonist
  Emax: 91.6%
Mus musculus [4]
  MPE: 0%

## CN(C)C(CNC(=O)NC1CCCC1)c1cccc(F)c1 (stereo unspecified)
Mu-type opioid receptor [2]
  Emax: < 20%
Nociceptin receptor [5]
  EC50: 2.6 nM
Nociceptin receptor [3]; filed as agonist
  Emax: 67.1%

## Cc1cccc(CNC(=O)NCC(c2cccc(F)c2)N(C)C)c1 (stereo unspecified)
Mu-type opioid receptor [1]
  EC50: 0.526 nM
Mu-type opioid receptor [2]; filed as agonist
  Emax: 91.4%
Nociceptin receptor [5]
  EC50: 2130 nM
Nociceptin receptor [3]; filed as agonist
  Emax: 67.1%

## CN(C)C(CNC(=O)NCc1cccc(Cl)c1)c1cccc(F)c1 (stereo unspecified)
Mus musculus [6]
  ED50: 0.284 mg/kg
Nociceptin receptor [7]
  EC50: 0.2 nM
Nociceptin receptor [8]
  Ki: 0.2 nM
Mu-type opioid receptor [1]
  EC50: 0.000102 nM
Mus musculus [9]
  Activity: inactive
Mus musculus [10]
  ED50: 0.402 mg/kg
Mus musculus [11]
  Activity: Active
[12]
  concentration at 5 min: 838 ng/g
Mus musculus [13]
  Activity: inactive
Mu-type opioid receptor [14]
  Activity: Active
[15]
  concentration at 5 min: 1290 ng/g
Mu-type opioid receptor [2]; filed as agonist
  Emax: 92.5%
[16]
  concentration at 5 min: 673 ng/mL
Nociceptin receptor [5]
  EC50: 0.000126 nM
Mus musculus [17]
  Activity: inactive
Mu-type opioid receptor [18]
  Ki: 0.4 nM
Nociceptin receptor [3]; filed as agonist
  Emax: 91.6%
Mus musculus [19]
  Activity: Active
[20]
  concentration at 1 h: 454 ng/g
Mu-type opioid receptor [21]
  EC50: 3.99 nM
Mus musculus [22]
  Activity: inactive
Mus musculus [23]
  Activity: inactive
[24]
  concentration at 1 h: 237 ng/g
Mus musculus [4]
  MPE: 100%
Nociceptin receptor [25]
  Activity: Active
[26]
  concentration at 1 h: 119 ng/mL

## CN(C)C(CNC(=O)NCCCc1ccccc1)c1cccc(F)c1 (stereo unspecified)
Mu-type opioid receptor [1]
  EC50: 0.631 nM
Mu-type opioid receptor [2]; filed as agonist
  Emax: 80.2%
Nociceptin receptor [5]
  EC50: 0.711 nM
Nociceptin receptor [3]; filed as agonist
  Emax: 66.6%

## CN1CC[C@]23c4c5ccc(O)c4O[C@H]2[C@@H](O)C=C[C@H]3[C@H]1C5
Mus musculus [27]
  Activity: Active

## CN(C)C(CNC(=O)NCCc1ccc(C(F)(F)F)cc1)c1cccc(F)c1 (stereo unspecified)
Mu-type opioid receptor [1]
  EC50: 0.000501 nM
Mu-type opioid receptor [2]; filed as agonist
  Emax: 88.5%
Nociceptin receptor [5]
  EC50: 0.06 nM
Nociceptin receptor [3]; filed as agonist
  Emax: 57.5%
Mus musculus [4]
  MPE: 39.05%

## CN(C)C(CNC(=O)NCc1ccc(Cl)cc1)c1cccc(F)c1 (stereo unspecified)
Mu-type opioid receptor [1]
  EC50: 0.00033 nM
Mu-type opioid receptor [2]; filed as agonist
  Emax: 84.7%
Nociceptin receptor [3]
  Emax: < 20%

## Cc1cccc(CCNC(=O)NCC(c2cccc(F)c2)N(C)C)c1 (stereo unspecified)
Mu-type opioid receptor [2]; filed as agonist
  Emax: 89.7%
Nociceptin receptor [3]; filed as agonist
  Emax: 67%
Mus musculus [4]
  MPE: 0%
